Calls of active or inactive are those of the source. The rule behind the calls is not given here.
Key:
BMDM [1] = test: Anti-osteoclastogenesis activity in C57BL/6 mouse BMDM cells assessed as inhibition of RANKL-induced osteoclastogenesis at 10 uM incubated for 7 days in the presence of M-CSF by TRAP-staining based microscopic analysis relative to control; type: functional; conditions: C57BL/6, BMDM, 168 h, time 7 day
[2] = Cytotoxicity against C57BL/6 mouse BMDM cells incubated for 48 hrs by MTT assay; type: toxicity, cell-based; conditions: BMDM cells (bone marrow-derived macrophages)
[3] = target: T1, Kelch-like ECH-associated protein 1 (Homo sapiens, UniProt Q14145); test: Binding affinity to recombinant human Keap1 assessed as equilibrium dissociation constant by SPR analysis
[4] = target: T1, Kelch-like ECH-associated protein 1; test: Binding affinity to recombinant human Keap1 by SPR analysis
BMDM [5] = test: Anti-osteoclastogenesis activity in C57BL/6 mouse BMDM cells assessed as inhibition of RANKL-induced osteoclastogenesis at 1 uM incubated for 7 days in the presence of M-CSF by TRAP-staining based microscopic analysis relative to control; type: functional; conditions: C57BL/6, BMDM, 168 h, time 7 day

T1 sequence (Q14145 whole entry): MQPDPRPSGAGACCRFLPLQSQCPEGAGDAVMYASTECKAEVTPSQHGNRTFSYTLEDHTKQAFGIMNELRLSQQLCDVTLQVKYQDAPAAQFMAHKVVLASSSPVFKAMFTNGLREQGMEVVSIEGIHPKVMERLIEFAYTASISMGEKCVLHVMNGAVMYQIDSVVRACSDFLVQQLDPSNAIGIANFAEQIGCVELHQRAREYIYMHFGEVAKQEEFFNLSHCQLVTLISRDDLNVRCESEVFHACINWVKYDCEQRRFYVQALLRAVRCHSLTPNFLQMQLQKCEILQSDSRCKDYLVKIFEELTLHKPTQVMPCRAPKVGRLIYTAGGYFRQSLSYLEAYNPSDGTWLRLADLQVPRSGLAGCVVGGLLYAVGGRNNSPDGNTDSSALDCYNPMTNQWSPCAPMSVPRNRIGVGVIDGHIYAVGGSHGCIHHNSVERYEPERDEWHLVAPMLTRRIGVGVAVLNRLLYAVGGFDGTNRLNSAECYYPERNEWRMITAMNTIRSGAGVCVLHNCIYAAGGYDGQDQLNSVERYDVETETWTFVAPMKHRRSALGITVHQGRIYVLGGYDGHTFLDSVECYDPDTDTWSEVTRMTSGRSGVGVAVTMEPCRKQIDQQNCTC

SMILES	Kd [3] [µM]	Activity [4]	inhibition at 10 µM (BMDM [1]) [%]	CC50 at 48 h [2] [µM]	inhibition at 1 µM (BMDM [5]) [%]
CC(=O)O[C@H]1/C=C\C(CO)=C/[C@@H]2OC(=O)[C@H](C)[C@@]2(O)[C@@H](OC(C)=O)[C@H]2[C@@](O)(CO)CC[C@H](OC(C)=O)[C@]12C	6.6		32	> 50	
CC(=O)O[C@H]1CC[C@](O)(CO)[C@@H]2[C@H](OC(C)=O)[C@@]3(O)[C@H](/C=C(CO)\C=C/[C@H](OC(=O)COC(=O)CC(C)C)[C@@]12C)OC(=O)[C@@H]3C	> 100	inactive	33.7	> 50	
C=C1[C@H](OC(=O)CC(C)C)C[C@H](OC(C)=O)[C@@]2(C)[C@@H](OC(C)=O)C[C@@H](OC(C)=O)[C@]3(CO3)[C@@H]2[C@H](OC(C)=O)[C@]2(O)[C@@H](C)C(=O)O[C@H]2[C@H]1Cl		Active	100	> 50	
CC(=O)O[C@H]1[C@@H](OC(=O)CC(C)C)[C@](O)(CO)[C@@H]2[C@H](OC(C)=O)[C@@]3(O)[C@H](/C=C(CCl)\C=C/[C@H](OC(C)=O)[C@@]2(C)[C@H]1OC(C)=O)OC(=O)[C@@H]3C		inactive	20.9	> 50	
O=P(O)(O)C(O)(Cn1ccnc1)P(=O)(O)O [ZOLEDRONIC ACID ANHYDROUS]					87.1
C=C1[C@H]2O[C@]3([C@@H](C)C(=O)O[C@H]3[C@H]1Cl)[C@@H](OC(C)=O)[C@H]1[C@@](O)(CCl)CC[C@H](OC(C)=O)[C@]1(C)[C@@H](OC(C)=O)[C@@H]2OC(C)=O		Active	98.8	> 50	

Second part, led by results:

Kd [3] [µM]	Activity [4]	SMILES	inhibition at 10 µM (BMDM [1]) [%]	CC50 at 48 h [2] [µM]	inhibition at 1 µM (BMDM [5]) [%]
6.2		CCOCC1=C/[C@@H]2OC(=O)[C@H](C)[C@@]2(O)[C@@H](OC(C)=O)[C@H]2[C@@]3(CO3)[C@H](OC(C)=O)C[C@H](OC(C)=O)[C@]2(C)[C@@H](OC(C)=O)/C=C\1	88.3	> 50	
> 100		CCOCC1=C/[C@@H]2OC(=O)[C@H](C)[C@@]2(O)[C@@H](OC(C)=O)[C@H]2[C@@]3(CO3)[C@H](OC(C)=O)C[C@H](OC(=O)CC(C)C)[C@]2(C)[C@@H](OC(C)=O)/C=C\1	38.4	> 50	
	inactive	CC(=O)O[C@H]1/C=C\C(CO)=C/[C@@H]2OC(=O)[C@H](C)[C@@]2(O)[C@@H](OC(C)=O)[C@H]2[C@@](O)(CO)[C@H](O)[C@H](OC(=O)CC(C)C)[C@H](OC(C)=O)[C@]12C	62.8	> 50	
